The source of these data is a melting point compilation (Tetko et al.; mined from patent text by program, amines drawn as free bases though some values may be those of a salt).

Each structure is given as a SMILES string.

The melting point is the temperature, or range, at which the solid turns liquid. `CCOC(=O)/C=C/c1ccc(C=Cc2nc(-c3ccccc3)oc2C)cc1` registered a melting point of 161 to 162 °C.

`CCOc1cnc2nc(S(=O)(=O)Cl)nn2c1` yielded a melting point of 134 to 137 °C.

For the compound `Cc1ccc(COc2ccn(Cc3ccccc3)c(=O)c2Br)cc1`, the melting point fell in the range of 149 to 150 °C.

As for `COc1cc2ncnc(N3CCc4cc(OCc5ccccc5)ccc43)c2cc1OC`, the melting point was 181 to 182 °C.

For the compound `CCCN(CCC)C(=O)C(CCC(=O)NC)NC(=O)C=Cc1ccco1` (centres undefined), the melting point lay within 112 to 113 °C.

`CCCC1=C(O)C(C(=O)CC)C(=O)OC1=O` (centres undefined) returned a melting point of 149 to 150 °C.

`COc1ccc(-c2cc3nc(N4CCOCC4)c4ccccc4c3nn2)cc1` yielded a melting point of 218 to 220 °C.

As to `COc1cccc(CCN2C(=O)c3c(F)ccc(F)c3C2(O)c2ccccc2)c1` (centres undefined), the melting point is 141 °C.

In the case of `CN(C)c1cccc(C(=O)N2CCC3(CC2)CSC2=C(O3)c3ccccc3C(=O)C2=O)c1`, the melting point lay in the range of 170 to 172 °C.

In the case of `O=[N+]([O-])c1c(O)nc(N2CCSCC2)nc1O`, the melting point was 220 to 223 °C.

On to `OCCNc1c(Br)cnc2cc(C(F)(F)F)ccc12`, for which the melting point was in the range of 140 to 141 °C.

`CC(c1ccccc1)N1CC(CF)(C(=O)N(Cc2ccccc2)Cc2ccccc2)CC1=O` (centres undefined): the melting point lay in the range of 113 to 115 °C.

Turning to `OCCc1cccc(Nc2ccc3nc(N[C@@H]4CCc5ccccc54)ccc3c2)c1`, the melting point is 109 °C.

As for `O=C1c2ccccc2C(=O)c2oc(-c3ccc(F)cc3)nc21`, the melting point was more than 260 °C.

The compound `CN1CCN(c2ccc(N/C=C3\C(=O)NC(=O)c4ccc(C#Cc5ccccc5)cc43)cc2)CC1` gave a melting point of 169 to 170 °C.

For `COC(=O)C1(C)c2ccccc2-c2ccccc21`, the melting point lay in the range of 108 to 109 °C.

As for `CC(NC(=O)Cc1cc(F)cc(F)c1)C(=O)NC1C(=O)N(C)Cc2ccccc21` (centres undefined), the melting point was in the range of 174 to 175 °C.

In turn, `CCc1nc2c(cnn2CC)c(NC2CCOCC2)c1CNC(=O)c1cc(C)cc(C(=O)NCc2ccc(Cl)c(-c3cccc(C=O)c3)c2)c1` registered a melting point of 153 to 156 °C.

The compound `CC(C)(C)OC(=O)Nc1ccc(-c2ccccc2F)cc1[N+](=O)[O-]` displayed a melting point of 131 to 133 °C.

The compound `CCCCCCCCOc1c(Cl)c(Sc2ccccc2N)c(OCCCCCCCC)c2c1C(=N)NC2=N` registered a melting point of 97 to 99 °C.

Take `Oc1ccc(C=Cc2ccncc2)cc1`: the melting point was in the range of 272 to 275 °C.

As to `CCNC(=O)c1c(Cl)cc(C(C)(C)C)cc1[Si](C)(C)C`, the melting point was 124 to 126 °C.

In turn, `Cc1cn(C2CCCCC2)c(=O)nc1N` registered a melting point of 205 to 207 °C.

For the compound `CCOC(=O)c1ccn2c(=O)c(CC)c(C)nc2c1`, the melting point was in the range of 95 to 96 °C.

On to `N#Cc1ccc(NC(=O)c2ccc3ccccc3c2O)c(OC(F)(F)F)c1`, for which the melting point came out at 178 °C.

The compound `CCCCNc1cccc(O)c1` displayed a melting point of 35 °C.

`Nc1c(Cl)cc(-c2ccccc2)cc1Cl`: the melting point was in the range of 112 to 113 °C.

For `CS(=O)(=O)C(Cl)(Cl)C(=O)c1ccccc1Cl`, the melting point was 81 to 82 °C.

`Oc1ccc(CN(Cc2ccc(O)c3ncccc23)Cc2ccc(O)c3ncccc23)c2cccnc12`: the melting point was in the range of 175 to 178 °C.

For the compound `Cc1cc(N)nc(CCc2nc3cc(-c4cccc(O)c4)cnc3[nH]2)c1`, the melting point is 162 °C.

As to `O=C(Nc1nc(Cl)cc(Cl)n1)NS(=O)(=O)Nc1ccccc1C(=O)C1CC1`, the melting point lay within 114 to 116 °C.

`CC1(C)C(=O)N(c2ccc(C#N)c(Cl)c2)C(=O)N1CCCCCN1C(=O)N(c2ccc(C#N)c(Cl)c2)C(=O)C1(C)C` gave a melting point of 166 to 167 °C.

On to `CS(=O)(=O)NC(=O)CCCCOc1cccc(O)c1C=O`, for which the melting point was in the range of 136 to 138 °C.

Compound `O=C(Sc1ccccn1)c1ccc(Br)cc1` registered a melting point of 69 to 70 °C.

For `CCOC(=O)c1ccc(SCCCC2CCN(c3ccc(Cl)nn3)CC2)cc1`, the melting point was 96.3 °C.

As to `O=C(COc1ccccc1)NCCO[N+](=O)[O-]`, the melting point fell in the range of 61 to 62 °C.

Consider `COCCn1nc(CC(C)C)c2cn(Cc3cccc4ccccc34)cc2c1=O`, for which the melting point lay within 96 to 98 °C.

With `COc1ccc(CO)cc1OCc1nc(-c2ccccc2)oc1C`, the melting point was in the range of 144 to 145 °C.

For the compound `CC(CCc1ccccc1)NCC(O)c1cc(C(N)=O)c2[nH]ccc2c1` (centres undefined), the melting point was 94 to 100 °C.

With `COc1ccccc1C(=O)c1cccnn1`, the melting point lay in the range of 125 to 126 °C.

`COC(=O)C=Cc1ccc(OCCN(C)c2ccccn2)c(F)c1` had a melting point of 110 to 111 °C.

In turn, `Cc1oc(-c2ccc(C(F)(F)F)cc2)nc1COc1cccc(C=CC(C)n2oc(=O)[nH]c2=O)c1` (centres undefined) displayed a melting point of 104 to 105 °C.

`CC(=O)C1=CCC2C3CCC4=CC(=O)CCC4(C)C3=CCC12C` (centres undefined) displayed a melting point of 200 to 201 °C.

In turn, `CS(=O)(=O)c1ccc(-c2ccc3cnc(Nc4ccc(N5CCCCC5)cc4)nn23)cc1` showed a melting point of 204 to 209 °C.

`O=c1c(CCCc2cnccn2)cc2cccnc2n1-c1cccc([N+](=O)[O-])c1` showed a melting point of 194 to 195 °C.

With `CC(=O)NC[C@H]1CN(c2ccc(C(=O)c3ccc[nH]3)cc2)C(=O)O1`, the melting point lay in the range of 202 to 205 °C.

For `CC(=O)c1ccc(OCCOc2ccc3ccccc3c2)cc1F`, the melting point fell in the range of 144 to 146 °C.

In turn, `COc1ccc(C2CCCN2S(=O)(=O)c2ccc(Cl)cc2)cc1` (racemic) gave a melting point of 133 °C.

Consider `CCOC(=O)CC1N(c2c(C)cccc2C)C(=N)C(C)N1c1c(C)cccc1C` (centres undefined), for which the melting point fell in the range of 116 to 119 °C.

In turn, `CCS(=O)(=O)c1cc(C(=O)Cl)c(OC)cc1Cl` came in with a melting point of 115 to 117 °C.

For the compound `Cc1cccc(-c2[nH]c(C(C)C)nc2-c2cccc(-c3ccc(N)cc3)c2)n1`, the melting point was 107 to 117 °C.

`O=c1[nH]ccn1-c1ccc(OCC(F)(F)C(F)F)cc1` registered a melting point of 157 to 159 °C.

In turn, `CC=CCn1c(C)c(C)c2cnnc(SCc3ccc(F)cc3F)c21` yielded a melting point of 122 to 127 °C.

With `CCc1cn(C)cc(-c2ccc(Cl)c(C(F)(F)F)c2)c1=O`, the melting point lay within 121 to 123 °C.

Turning to `CC(C)(C)c1cc(CCc2ccccc2NC(=O)NCC(C)(C)c2ccccc2F)cc(C(C)(C)C)c1O`, the melting point lay within 182 to 183 °C.

For `CCc1cccc2c(/C=C/C(=O)N3CCCCC3)cc(OC)c(O)c12`, the melting point lay within 85 to 86 °C.

In the case of `C/C=C/c1nnc(N2N=C(c3ccc([N+](=O)[O-])c(C)c3)c3cc4c(cc3C[C@H]2C)OCO4)s1`, the melting point lay within 232 to 237 °C.

Regarding `O=C(O)Cc1ccccc1OCCCc1cn(-c2ccc(C(F)(F)F)cn2)nc1C1CCCCC1`, the melting point lay in the range of 127 to 128 °C.

Consider `OC(CSc1ccc(Cl)cc1)Cn1ccnc1` (centres undefined), for which the melting point was 108 to 109 °C.

Compound `COC(=O)Cc1ccc2cc(OC)ncc2c1` registered a melting point of 49.5 to 51 °C.

Compound `CCNc1cccc(NC(=O)C(=O)OCC)c1C#N` gave a melting point of 99 to 102 °C.

For `COc1ccc2c(c1)C13CCCC4OC41C(C2)N(C(=O)C1CC1)CC3` (centres undefined), the melting point lay within 134 to 136 °C.

For the compound `Cn1c(CNCC2CCOCC2)cc2cc(NC(=O)c3ccc(OC[C@@H]4CCCO4)cc3)ccc21`, the melting point was 157 to 158 °C.

On to `C=C(C)C(=O)Nc1cccc(O)c1`, for which the melting point was in the range of 171 to 173 °C.

As for `CCO/C(=C\c1ccc(OCCc2ccc(OS(C)(=O)=O)cc2)c(OC)c1)C(=O)O`, the melting point was 147 °C.

As for `CC(C)(C)CNc1nc(C#N)nc2ccc(OCc3ccncc3)cc12`, the melting point was 203 to 205 °C.

`COc1cc(N2CCN([C@H]3CC[C@@H](c4cccs4)CC3)CC2)c2ncccc2c1` returned a melting point of 184 to 186 °C.

Consider `CCc1nc2c(N)nc3ccccc3c2n1CC(C)C`, for which the melting point was 233 to 234 °C.

Compound `CC(C)(C)C(O)C1C(C(=O)O)C1(C)C` (centres undefined) came in with a melting point of 129 °C.

In the case of `CC(=O)Nc1ccc(OC(F)(F)C(F)F)cc1[N+](=O)[O-]`, the melting point was in the range of 80 to 81 °C.

In turn, `CCC(C)NC(=O)n1c(=O)nc(N2CCOCC2)n1C` (centres undefined) registered a melting point of 147 °C.

`COc1ccc(-c2nc3n(c2-c2ccccn2)CCC3)cc1` came in with a melting point of 142 to 145 °C.

Regarding `O=C(NCC12CCCN(CCC1)C2)c1c[nH]c2ccccc12`, the melting point fell in the range of 139 to 142 °C.

Consider `O=C(NC[C@@H]1CN2C(=O)C[C@H]2O1)c1ccccc1` (racemic), for which the melting point was 115 to 116 °C.

Compound `CC(C)n1nc(-c2cc(C#N)c(=O)[nH]c2-c2ccccc2)ccc1=O` yielded a melting point of more than 250 °C.

`NC(=O)CCCCCOc1cc2ccc(-c3ccc(C(=O)O)cc3)cc2cc1C12CC3CC(CC(C3)C1)C2` had a melting point of 209 to 210 °C.

The compound `COc1c(Cl)ccc(-c2cc(N)c(Cl)c(C(=O)NOCCC#N)n2)c1F` came in with a melting point of 191 to 194 °C.

`CC(C)(C(=O)O)c1ccc(C(=O)CCCN2CCC(=C3c4ccccc4CCc4ccccc43)CC2)cc1`: the melting point was 122 to 125 °C.

With `COC(=O)Cn1c(C)ccc(NC(=O)OCc2ccccc2)c1=O`, the melting point lay within 115 to 116 °C.

`COC(=O)c1c(Oc2cccc(C)c2C)nn(C(=O)OC)c1C` came in with a melting point of 115 °C.

Take `CCc1ccc(Cc2c(OCc3ccccc3)n[nH]c2C)cc1`: the melting point lay in the range of 80 to 83 °C.

For `COc1ccc(C(=O)c2cc(Cl)ccc2NS(=O)(=O)c2ccc(C)cc2)c(O)c1OC`, the melting point was 185 to 187 °C.

For `CC(C)(C)OC(=O)N1CC(CCl)c2c1cc(N)c1ccccc21` (centres undefined), the melting point was more than 200 °C.

The compound `CCOC(=O)c1c2n(c3cc(Br)c(F)cc3c1=O)CCS2` yielded a melting point of 258 to 262 °C.

Consider `CCc1nc2c(cnn2CC)c(NC2CCOCC2)c1CNC(=O)c1cccc(C(=O)NCc2cc(Cl)cc(Br)c2)c1`, for which the melting point was in the range of 109 to 112 °C.

In turn, `OC(c1ccccc1)(C1CC1)C(c1cccc(Cl)c1)n1ccnc1` (centres undefined) displayed a melting point of 140 °C.

Turning to `N#CC1CN1C(=O)NC(=O)c1ccc(-c2ccccc2)cc1` (centres undefined), the melting point is 168 to 172 °C.

Consider `CCOC(=O)c1cn2c(cc(Cl)c3ccccc32)n1`, for which the melting point was in the range of 169 to 170 °C.

Compound `N#Cc1ccc(OC2CCOC2=O)cc1C(F)(F)F` (centres undefined) displayed a melting point of 107 to 108 °C.
